Reference: article PMC7462494, “Novel Bi-heterocycles as Potent Inhibitors of Urease and Less Cytotoxic Agents: 3-({5-((2-Amino-1,3-thiazol-4-yl)methyl)-1,3,4-oxadiazol-2-yl}sulfanyl)-N-(un/substituted-phenyl)propanamides” (Iranian Journal of Pharmaceutical Research : IJPR, 2020)
Where two headings read alike, the source gives them in different places.

Key:
urease = urease (Canavalia ensiformis, UniProt P07374); experiment: Urease inhibition assay (customized Berthelot assay); assay type: biochemical; conditions: for inhibition at 500 µM: read-out: Urease Inhibition, Inhibition (%)
Chain of urease (P07374 whole entry, looked up): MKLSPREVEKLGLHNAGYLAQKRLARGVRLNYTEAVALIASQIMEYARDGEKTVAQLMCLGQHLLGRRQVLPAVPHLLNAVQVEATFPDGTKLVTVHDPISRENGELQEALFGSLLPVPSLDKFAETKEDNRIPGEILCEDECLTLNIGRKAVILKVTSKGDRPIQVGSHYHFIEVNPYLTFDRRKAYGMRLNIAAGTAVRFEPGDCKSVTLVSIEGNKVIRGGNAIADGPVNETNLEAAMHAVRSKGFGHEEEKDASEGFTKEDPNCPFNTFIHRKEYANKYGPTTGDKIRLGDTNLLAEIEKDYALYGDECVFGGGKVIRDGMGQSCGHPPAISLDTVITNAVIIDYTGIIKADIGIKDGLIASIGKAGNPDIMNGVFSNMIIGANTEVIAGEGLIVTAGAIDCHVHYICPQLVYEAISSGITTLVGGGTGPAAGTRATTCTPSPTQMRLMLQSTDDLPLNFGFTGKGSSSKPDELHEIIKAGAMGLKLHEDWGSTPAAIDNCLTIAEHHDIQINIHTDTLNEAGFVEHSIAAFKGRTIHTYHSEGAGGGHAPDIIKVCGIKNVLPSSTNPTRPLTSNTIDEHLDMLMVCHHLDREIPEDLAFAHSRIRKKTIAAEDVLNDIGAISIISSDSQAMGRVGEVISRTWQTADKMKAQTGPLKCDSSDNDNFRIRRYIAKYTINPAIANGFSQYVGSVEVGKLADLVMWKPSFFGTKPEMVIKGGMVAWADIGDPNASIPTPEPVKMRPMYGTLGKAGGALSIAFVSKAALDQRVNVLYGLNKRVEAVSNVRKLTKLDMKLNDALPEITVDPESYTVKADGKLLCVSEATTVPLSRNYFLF
Experimental: This enzyme assay is the customized form of the commonly known Berthelot assay ([23], [24]). […] The contents were pre-incubated at 37 °C for 5 min. 40 µL of urea stock solution (20 mM) was added to each well with incubation for 10 min at 37 °C. It is followed by the addition of 115 µL phenol hypochlorite reagents (freshly prepared by mixing 45 µL phenol with 70 µL of alkali) per well. For color development, incubation was carried out for further 10 min at 37 °C. The absorbance was measured at 625 nm. The percentage enzyme inhibition and IC50 values were calculated using the following formula:
inhibition%=Control-test/Control×100
Where, Control is the total enzyme activity without inhibitor and Test is the activity in the presence of test compound. IC50 values were calculated using the EZ–Fit Enzyme kinetics software (Perrella Scientific Inc. Amherst, US).
Statistical analysis was performed by Microsoft Excel 2010 for all the thrice measured values and the results are presented as mean ± SEM.

[1] = Hemolytic activity (cytotoxicity through hemolysis); assay type: cell-based; conditions: bovine, red blood cell (erythrocyte) suspension, pH 7.4, 20 µL compound solution (10 mg/mL) in 180 µL RBCs suspension, room temperature, PBS negative control, Triton positive control
From the text: The erythrocytes separated diluted in phosphate buffer saline of pH 7.4 and a suspension was made.

Row | Compound | IC50 (urease) | inhibition at 500 µM (urease) | hemolysis at 30 min, 1 mg/mL [1] | melting point | Urease Inhibition, Inhibition (%) (urease; at 0.5 mM, mean ± SEM, n = 3) | IC50 (urease; mean ± SEM, n = 3, EZ-Fit Enzyme kinetics software, read-out: Urease Inhibition, IC50)
1 | Nc1nc(Cc2nnc(SCCC(=O)Nc3ccccc3)o2)cs1 [Compound 7a, 3-({5-[(2-Amino-1,3-thiazol-4-yl)methyl]-1,3,4-oxadiazol-2-yl}sulfanyl)-N-phenylpropanamide] | 2450 ± 40 nM | 98.24 ± 0.08% | 11.5% | 190 to 191 °C |  | 
2 | Cc1ccccc1NC(=O)CCSc1nnc(Cc2csc(N)n2)o1 [Compound 7b, 3-({5-[(2-Amino-1,3-thiazol-4-yl)methyl)-1,3,4-oxadiazol-2-yl}sulfanyl)-N-(2-methylphenyl)propanamide] | 2640 ± 30 nM | 96.42 ± 0.02% | 7.05% |  |  | 
3 | Cc1cccc(NC(=O)CCSc2nnc(Cc3csc(N)n3)o2)c1 [Compound 7c, 3-({5-[(2-Amino-1,3-thiazol-4-yl)methyl]-1,3,4-oxadiazol-2-yl}sulfanyl)-N-(3-methylphenyl)propanamide] | 1320 ± 20 nM | 98.52 ± 0.05% | 5.16% |  |  | 
4 | Cc1ccc(NC(=O)CCSc2nnc(Cc3csc(N)n3)o2)cc1 [Compound 7d, 3-({5-[(2-Amino-1,3-thiazol-4-yl)methyl]-1,3,4-oxadiazol-2-yl}sulfanyl)-N-(4-methylphenyl)propanamide] | 1750 ± 10 nM | 98.13 ± 0.02% | 7.16% |  |  | 
5 | Cc1ccc(NC(=O)CCSc2nnc(Cc3csc(N)n3)o2)c(C)c1 [Compound 7e, 3-({5-[(2-Amino-1,3-thiazol-4-yl)methyl]-1,3,4-oxadiazol-2-yl}sulfanyl)-N-(2,4-dimethylphenyl)propanamide] | 1240 ± 10 nM | 98.19 ± 0.09% | 6.74% |  |  | 
6 | Cc1ccc(C)c(NC(=O)CCSc2nnc(Cc3csc(N)n3)o2)c1 [Compound 7f, 3-({5-[(2-Amino-1,3-thiazol-4-yl)methyl]-1,3,4-oxadiazol-2-yl}sulfanyl)-N-(2,5-dimethylphenyl)propanamide] | 5180 ± 60 nM | 96.26 ± 0.03% | 6.42% |  |  | 
7 | Cc1cccc(C)c1NC(=O)CCSc1nnc(Cc2csc(N)n2)o1 [Compound 7g, 3-({5-[(2-Amino-1,3-thiazol-4-yl)methyl]-1,3,4-oxadiazol-2-yl}sulfanyl)-N-(2,6-dimethylphenyl)propanamide] | 2630 ± 30 nM | 98.52 ± 0.06% | 7.37% | 149 to 150 °C |  | 
8 | Cc1ccc(NC(=O)CCSc2nnc(Cc3csc(N)n3)o2)cc1C [Compound 7h, 3-({5-[(2-Amino-1,3-thiazol-4-yl)methyl]-1,3,4-oxadiazol-2-yl}sulfanyl)-N-(3,4-dimethylphenyl)propanamide] | 2560 ± 20 nM | 97.28 ± 0.02% | 5.79% | 177 to 178 °C |  | 
9 | Cc1cc(C)cc(NC(=O)CCSc2nnc(Cc3csc(N)n3)o2)c1 [Compound 7i, 3-({5-[(2-Amino-1,3-thiazol-4-yl)methyl]-1,3,4-oxadiazol-2-yl}sulfanyl)-N-(3,5-dimethylphenyl)propanamide] | 3620 ± 10 nM | 97.31 ± 0.08% | 5.26% |  |  | 
10 | CCc1ccccc1NC(=O)CCSc1nnc(Cc2csc(N)n2)o1 [Compound 7j, 3-({5-[(2-Amino-1,3-thiazol-4-yl)methyl]-1,3,4-oxadiazol-2-yl}sulfanyl)-N-(2-ethylphenyl)propanamide] | 2130 ± 10 nM | 98.12 ± 0.03% | 6.63% | 198 to 199 °C |  | 
11 | CCc1ccc(NC(=O)CCSc2nnc(Cc3csc(N)n3)o2)cc1 [Compound 7k, 3-({5-[(2-amino-1,3-thiazol-4-yl)methyl]-1,3,4-oxadiazol-2-yl}sulfanyl)-N-(4-ethylphenyl)propanamide] | 2850 ± 50 nM | 97.43 ± 0.07% | 7.16% |  |  | 
12 | CCOc1ccc(NC(=O)CCSc2nnc(Cc3csc(N)n3)o2)cc1 [Compound 7l, 3-({5-[(2-Amino-1,3-thiazol-4-yl)methyl]-1,3,4-oxadiazol-2-yl}sulfanyl)-N-(4-ethoxyphenyl)propanamide] | 2170 ± 20 nM | 97.25 ± 0.04% | 8.11% |  |  | 
13 | NC(N)=S [Thiourea, reference compound] |  |  |  |  | Thiourea 98.12 ± 0.18% | 21100 nM
14 | CC(C)(C)CC(C)(C)c1ccc(OCCO)cc1 [Triton-X, reference compound] |  |  | 89% |  |  | 
